Source: ChEMBL document CHEMBL1201862, “PubChem BioAssay data set” (2004)
Active and inactive are the calls of the source.

Tests used:
Fatty acid synthase [1] = target: T1, Fatty acid synthase (Homo sapiens, UniProt P49327); test: inhibition of human FAS-TE enzyme activity – biochemical, kinetic fluorescence intensity, dose response (AID 624326); assay type: functional;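 note: rate of fluorescence rise from hydrolysis of a fluorogenic O-methyl fluorescein ester substrate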
Fatty acid synthase [2] = target: T1, Fatty acid synthase; test: inhibition of human FAS-TE enzyme activity – biochemical, endpoint fluorescence intensity, uHTS hits, dose response (AID 624327); assay type: functional;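 note: fluorescence from hydrolysis of an O-methyl fluorescein acyl ester substrate by the enzyme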
[3] = target: Voltage-dependent T-type calcium channel subunit alpha-1H (Homo sapiens, UniProt O95180); assay type: functional;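 note: channel activity triggered by adding a high calcium stimulation buffer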
Estrogen receptor = target: T2, Estrogen receptor (Homo sapiens, UniProt P03372);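 note: potency for inhibiting coactivator peptide recruitment to the receptor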
T2 sequence (P03372 whole entry): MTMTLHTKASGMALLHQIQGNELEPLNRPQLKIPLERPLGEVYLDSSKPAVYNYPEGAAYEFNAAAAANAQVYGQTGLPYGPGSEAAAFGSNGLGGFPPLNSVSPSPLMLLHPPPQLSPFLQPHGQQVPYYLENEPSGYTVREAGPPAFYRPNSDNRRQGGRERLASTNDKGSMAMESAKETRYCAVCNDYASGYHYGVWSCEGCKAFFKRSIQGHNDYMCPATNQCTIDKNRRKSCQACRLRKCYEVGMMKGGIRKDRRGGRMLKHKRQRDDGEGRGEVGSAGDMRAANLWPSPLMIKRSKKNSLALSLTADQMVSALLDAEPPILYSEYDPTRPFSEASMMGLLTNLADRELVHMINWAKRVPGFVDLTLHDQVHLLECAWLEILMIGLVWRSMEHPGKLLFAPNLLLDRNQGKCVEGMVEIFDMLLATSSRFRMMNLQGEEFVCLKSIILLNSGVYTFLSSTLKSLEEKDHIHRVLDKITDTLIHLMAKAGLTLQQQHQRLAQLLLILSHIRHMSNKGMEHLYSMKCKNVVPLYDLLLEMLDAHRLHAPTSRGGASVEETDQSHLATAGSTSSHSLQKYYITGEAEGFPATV

[4] = target: T3, DNA dC->dU-editing enzyme APOBEC-3A (Homo sapiens, UniProt P31941); test: A3A deaminase inhibition for selectivity – biochemical, dose response (AID 504722); assay type: functional
T3 sequence (P31941 whole entry): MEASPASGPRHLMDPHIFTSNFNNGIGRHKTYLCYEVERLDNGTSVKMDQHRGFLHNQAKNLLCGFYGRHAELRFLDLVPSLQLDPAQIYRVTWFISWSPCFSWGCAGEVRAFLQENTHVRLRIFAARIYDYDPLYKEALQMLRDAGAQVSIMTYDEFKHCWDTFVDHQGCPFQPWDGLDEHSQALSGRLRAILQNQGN

[5] = target: T4, DNA dC->dU-editing enzyme APOBEC-3G (Homo sapiens, UniProt Q9HC16); test: Dose Response confirmation of small molecule APOBEC3G DNA Deaminase Inhibitors via a fluorescence-based single-stranded DNA deaminase assay. [Related pubchem assays (depositor defined):AID493012, AID493028]; assay type: functional
T4 sequence (Q9HC16 whole entry): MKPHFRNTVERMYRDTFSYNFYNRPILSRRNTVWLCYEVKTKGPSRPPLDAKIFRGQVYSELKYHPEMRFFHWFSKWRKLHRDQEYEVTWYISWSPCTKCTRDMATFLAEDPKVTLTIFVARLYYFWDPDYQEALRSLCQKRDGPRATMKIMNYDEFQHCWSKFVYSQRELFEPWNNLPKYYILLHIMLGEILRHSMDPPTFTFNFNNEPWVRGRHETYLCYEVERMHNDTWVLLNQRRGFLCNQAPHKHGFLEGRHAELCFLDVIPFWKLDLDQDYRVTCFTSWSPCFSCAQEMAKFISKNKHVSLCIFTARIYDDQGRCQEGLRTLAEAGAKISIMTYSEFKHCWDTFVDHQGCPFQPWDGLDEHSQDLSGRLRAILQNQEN

[6] = target: Glucose-6-phosphate 1-dehydrogenase (Homo sapiens, UniProt P11413); test: inhibition of Homo sapiens G6PD, dose series – biochemical, fluorescence, selectivity assay for P. falciparum G6PD inhibitor project, dose response (AID 504792); assay type: functional
Glucose-6-phosphate 1-dehydrogenase, sequence (P11413 whole entry): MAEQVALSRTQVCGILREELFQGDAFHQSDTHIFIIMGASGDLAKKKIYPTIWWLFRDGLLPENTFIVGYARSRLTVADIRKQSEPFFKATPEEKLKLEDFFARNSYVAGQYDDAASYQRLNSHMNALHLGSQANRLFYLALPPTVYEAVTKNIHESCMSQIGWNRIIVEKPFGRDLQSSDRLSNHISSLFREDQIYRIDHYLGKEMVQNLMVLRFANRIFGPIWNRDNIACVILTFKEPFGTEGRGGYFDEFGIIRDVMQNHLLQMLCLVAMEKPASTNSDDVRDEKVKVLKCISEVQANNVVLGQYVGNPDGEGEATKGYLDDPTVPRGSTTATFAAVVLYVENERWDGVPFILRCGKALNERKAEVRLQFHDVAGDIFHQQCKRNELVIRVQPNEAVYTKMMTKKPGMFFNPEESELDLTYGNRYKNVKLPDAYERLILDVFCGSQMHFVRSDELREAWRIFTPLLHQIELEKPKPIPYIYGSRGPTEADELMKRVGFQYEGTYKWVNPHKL

Leucine aminopeptidase = target: T5, Leucine aminopeptidase (Plasmodium falciparum 3D7, UniProt Q8IL11); test: P. falciparum M17LAP inhibitors, primary screen, biochemical, fluorogenic H-Leu-NHMec substrate, 1536-well (AID 1619); assay type: functional
T5 sequence (Q8IL11 whole entry): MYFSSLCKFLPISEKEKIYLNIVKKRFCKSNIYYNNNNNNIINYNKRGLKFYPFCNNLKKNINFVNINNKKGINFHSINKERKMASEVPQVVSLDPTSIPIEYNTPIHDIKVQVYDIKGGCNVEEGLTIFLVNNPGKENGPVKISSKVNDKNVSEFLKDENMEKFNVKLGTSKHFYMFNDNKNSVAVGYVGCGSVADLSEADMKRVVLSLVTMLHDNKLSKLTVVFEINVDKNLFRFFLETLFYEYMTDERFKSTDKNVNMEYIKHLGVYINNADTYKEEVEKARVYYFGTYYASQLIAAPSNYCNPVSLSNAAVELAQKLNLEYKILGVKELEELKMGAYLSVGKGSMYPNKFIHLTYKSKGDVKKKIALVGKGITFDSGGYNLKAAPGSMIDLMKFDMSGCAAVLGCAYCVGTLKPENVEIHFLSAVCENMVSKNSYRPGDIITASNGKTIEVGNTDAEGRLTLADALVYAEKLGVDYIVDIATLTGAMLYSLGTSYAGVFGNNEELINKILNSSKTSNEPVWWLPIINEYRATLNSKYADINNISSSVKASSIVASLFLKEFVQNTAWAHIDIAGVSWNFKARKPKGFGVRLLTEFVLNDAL

[7] = microbe, parasite or virus in culture; assay type: functional; conditions: Mycobacterium tuberculosis
Aminopeptidase N = target: T6, Aminopeptidase N (Plasmodium falciparum FcB1/Columbia, UniProt O96935); test: malaria alanyl aminopeptidase activity blockers – biochemical, fluorogenic H-Leu-NHMec substrate, 1536-well (AID 1445); parameters: species or system Plasmodium falciparum 3D7, 3D7
T6 sequence (O96935 whole entry): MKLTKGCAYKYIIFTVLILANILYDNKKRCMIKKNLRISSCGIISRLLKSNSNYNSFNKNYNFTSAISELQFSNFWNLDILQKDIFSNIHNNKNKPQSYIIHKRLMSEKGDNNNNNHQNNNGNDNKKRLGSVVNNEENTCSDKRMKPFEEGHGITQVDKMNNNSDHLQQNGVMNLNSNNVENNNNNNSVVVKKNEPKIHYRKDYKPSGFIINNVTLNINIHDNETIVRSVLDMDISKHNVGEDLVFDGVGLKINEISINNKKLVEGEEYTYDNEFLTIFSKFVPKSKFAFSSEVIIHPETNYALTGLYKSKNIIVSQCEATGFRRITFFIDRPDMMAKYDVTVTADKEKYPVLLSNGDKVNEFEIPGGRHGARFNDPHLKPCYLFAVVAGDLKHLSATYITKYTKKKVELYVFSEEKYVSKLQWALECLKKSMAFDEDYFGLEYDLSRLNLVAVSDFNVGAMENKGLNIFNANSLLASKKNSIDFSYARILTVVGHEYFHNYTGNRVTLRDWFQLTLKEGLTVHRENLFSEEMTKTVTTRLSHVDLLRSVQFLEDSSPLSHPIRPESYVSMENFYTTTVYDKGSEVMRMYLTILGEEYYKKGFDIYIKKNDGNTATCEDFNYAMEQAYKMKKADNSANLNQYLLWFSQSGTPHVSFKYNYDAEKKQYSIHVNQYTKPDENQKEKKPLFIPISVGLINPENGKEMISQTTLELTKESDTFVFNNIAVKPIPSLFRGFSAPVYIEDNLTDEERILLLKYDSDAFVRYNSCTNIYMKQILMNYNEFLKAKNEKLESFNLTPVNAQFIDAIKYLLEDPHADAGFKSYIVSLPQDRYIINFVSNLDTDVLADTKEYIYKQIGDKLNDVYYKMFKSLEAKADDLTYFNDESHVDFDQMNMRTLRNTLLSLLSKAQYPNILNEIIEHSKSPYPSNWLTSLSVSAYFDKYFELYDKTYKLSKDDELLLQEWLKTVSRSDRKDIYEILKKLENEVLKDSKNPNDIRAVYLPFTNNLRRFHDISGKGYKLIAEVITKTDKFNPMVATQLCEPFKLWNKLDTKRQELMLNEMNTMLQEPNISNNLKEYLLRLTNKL

[8] = target: T7, Polyadenylate-binding protein 1 (Homo sapiens, UniProt P11940); test: MLLE binding blockers, Cy5 peptide tracer – biochemical, fluorescence polarization, Cy5-PAM2 peptide, secondary, miRNA deadenylation inhibitor project, dose response (AID 602260); assay type: functional; conditions: read-out: IC50_Mean
T7 sequence (P11940 whole entry, the tested form may be a part): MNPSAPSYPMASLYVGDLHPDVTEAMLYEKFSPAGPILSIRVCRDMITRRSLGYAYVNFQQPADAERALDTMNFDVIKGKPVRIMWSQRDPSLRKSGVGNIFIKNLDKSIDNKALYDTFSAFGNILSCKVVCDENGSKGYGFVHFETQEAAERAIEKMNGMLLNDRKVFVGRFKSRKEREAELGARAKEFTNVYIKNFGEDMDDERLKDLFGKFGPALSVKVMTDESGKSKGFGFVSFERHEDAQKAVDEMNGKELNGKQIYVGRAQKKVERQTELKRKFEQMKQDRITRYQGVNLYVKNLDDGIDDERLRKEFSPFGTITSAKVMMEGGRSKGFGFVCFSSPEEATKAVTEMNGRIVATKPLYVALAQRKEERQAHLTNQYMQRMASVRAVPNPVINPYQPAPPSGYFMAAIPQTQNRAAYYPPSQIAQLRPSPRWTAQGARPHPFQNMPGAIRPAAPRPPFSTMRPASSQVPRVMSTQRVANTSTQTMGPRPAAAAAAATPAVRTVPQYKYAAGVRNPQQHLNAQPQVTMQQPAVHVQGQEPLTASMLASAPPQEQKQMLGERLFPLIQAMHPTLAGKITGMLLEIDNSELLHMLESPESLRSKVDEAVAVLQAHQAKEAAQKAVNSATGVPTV

[9] = target: T7, Polyadenylate-binding protein 1; test: MLLE domain peptide-binding blockers, IC50 – biochemical, fluorescence polarization, FITC-PAM2 peptide, dose response (AID 602259); assay type: functional; conditions: read-out: IC50_Mean
[10] = Luminescence Cell-Based Dose Confirmation HTS to Identify Activators of 5'UTR Stem-Loop Driven Alpha-Synuclein mRNA Translation in H4 Neuroglioblastoma Cells. [Related pubchem assays: 1829 (Project Summary), 1814 (Primary HTS)]; assay type: functional
[11] = Luminescence Cell-Based Dose Response HTS to Identify Activators of Luciferase Translation or Activity in H4 […] Cells. [Related pubchem assays: 1829 (Project Summary), 1814 (Primary HTS)]; assay type: functional
H4 = test: Luminescence Cell-Based Dose Response HTS to Identify Activators of 5'UTR Stem-Loop Driven Prion Protein mRNA Translation in H4 Neuroglioblastoma Cells. [Related pubchem assays: 1829 (Project Summary), 1814 (Primary HTS)]; assay type: functional; conditions: Homo sapiens
[12] = target: T3, DNA dC->dU-editing enzyme APOBEC-3A; test: Dose Response confirmation of small molecule APOBEC3A DNA Deaminase Inhibitors via a fluorescence-based single-stranded DNA deaminase assay. [Related pubchem assays (depositor defined):AID493011, AID493024]; assay type: functional
[13] = target: T4, DNA dC->dU-editing enzyme APOBEC-3G; assay type: functional

T1 sequence (P49327 whole entry): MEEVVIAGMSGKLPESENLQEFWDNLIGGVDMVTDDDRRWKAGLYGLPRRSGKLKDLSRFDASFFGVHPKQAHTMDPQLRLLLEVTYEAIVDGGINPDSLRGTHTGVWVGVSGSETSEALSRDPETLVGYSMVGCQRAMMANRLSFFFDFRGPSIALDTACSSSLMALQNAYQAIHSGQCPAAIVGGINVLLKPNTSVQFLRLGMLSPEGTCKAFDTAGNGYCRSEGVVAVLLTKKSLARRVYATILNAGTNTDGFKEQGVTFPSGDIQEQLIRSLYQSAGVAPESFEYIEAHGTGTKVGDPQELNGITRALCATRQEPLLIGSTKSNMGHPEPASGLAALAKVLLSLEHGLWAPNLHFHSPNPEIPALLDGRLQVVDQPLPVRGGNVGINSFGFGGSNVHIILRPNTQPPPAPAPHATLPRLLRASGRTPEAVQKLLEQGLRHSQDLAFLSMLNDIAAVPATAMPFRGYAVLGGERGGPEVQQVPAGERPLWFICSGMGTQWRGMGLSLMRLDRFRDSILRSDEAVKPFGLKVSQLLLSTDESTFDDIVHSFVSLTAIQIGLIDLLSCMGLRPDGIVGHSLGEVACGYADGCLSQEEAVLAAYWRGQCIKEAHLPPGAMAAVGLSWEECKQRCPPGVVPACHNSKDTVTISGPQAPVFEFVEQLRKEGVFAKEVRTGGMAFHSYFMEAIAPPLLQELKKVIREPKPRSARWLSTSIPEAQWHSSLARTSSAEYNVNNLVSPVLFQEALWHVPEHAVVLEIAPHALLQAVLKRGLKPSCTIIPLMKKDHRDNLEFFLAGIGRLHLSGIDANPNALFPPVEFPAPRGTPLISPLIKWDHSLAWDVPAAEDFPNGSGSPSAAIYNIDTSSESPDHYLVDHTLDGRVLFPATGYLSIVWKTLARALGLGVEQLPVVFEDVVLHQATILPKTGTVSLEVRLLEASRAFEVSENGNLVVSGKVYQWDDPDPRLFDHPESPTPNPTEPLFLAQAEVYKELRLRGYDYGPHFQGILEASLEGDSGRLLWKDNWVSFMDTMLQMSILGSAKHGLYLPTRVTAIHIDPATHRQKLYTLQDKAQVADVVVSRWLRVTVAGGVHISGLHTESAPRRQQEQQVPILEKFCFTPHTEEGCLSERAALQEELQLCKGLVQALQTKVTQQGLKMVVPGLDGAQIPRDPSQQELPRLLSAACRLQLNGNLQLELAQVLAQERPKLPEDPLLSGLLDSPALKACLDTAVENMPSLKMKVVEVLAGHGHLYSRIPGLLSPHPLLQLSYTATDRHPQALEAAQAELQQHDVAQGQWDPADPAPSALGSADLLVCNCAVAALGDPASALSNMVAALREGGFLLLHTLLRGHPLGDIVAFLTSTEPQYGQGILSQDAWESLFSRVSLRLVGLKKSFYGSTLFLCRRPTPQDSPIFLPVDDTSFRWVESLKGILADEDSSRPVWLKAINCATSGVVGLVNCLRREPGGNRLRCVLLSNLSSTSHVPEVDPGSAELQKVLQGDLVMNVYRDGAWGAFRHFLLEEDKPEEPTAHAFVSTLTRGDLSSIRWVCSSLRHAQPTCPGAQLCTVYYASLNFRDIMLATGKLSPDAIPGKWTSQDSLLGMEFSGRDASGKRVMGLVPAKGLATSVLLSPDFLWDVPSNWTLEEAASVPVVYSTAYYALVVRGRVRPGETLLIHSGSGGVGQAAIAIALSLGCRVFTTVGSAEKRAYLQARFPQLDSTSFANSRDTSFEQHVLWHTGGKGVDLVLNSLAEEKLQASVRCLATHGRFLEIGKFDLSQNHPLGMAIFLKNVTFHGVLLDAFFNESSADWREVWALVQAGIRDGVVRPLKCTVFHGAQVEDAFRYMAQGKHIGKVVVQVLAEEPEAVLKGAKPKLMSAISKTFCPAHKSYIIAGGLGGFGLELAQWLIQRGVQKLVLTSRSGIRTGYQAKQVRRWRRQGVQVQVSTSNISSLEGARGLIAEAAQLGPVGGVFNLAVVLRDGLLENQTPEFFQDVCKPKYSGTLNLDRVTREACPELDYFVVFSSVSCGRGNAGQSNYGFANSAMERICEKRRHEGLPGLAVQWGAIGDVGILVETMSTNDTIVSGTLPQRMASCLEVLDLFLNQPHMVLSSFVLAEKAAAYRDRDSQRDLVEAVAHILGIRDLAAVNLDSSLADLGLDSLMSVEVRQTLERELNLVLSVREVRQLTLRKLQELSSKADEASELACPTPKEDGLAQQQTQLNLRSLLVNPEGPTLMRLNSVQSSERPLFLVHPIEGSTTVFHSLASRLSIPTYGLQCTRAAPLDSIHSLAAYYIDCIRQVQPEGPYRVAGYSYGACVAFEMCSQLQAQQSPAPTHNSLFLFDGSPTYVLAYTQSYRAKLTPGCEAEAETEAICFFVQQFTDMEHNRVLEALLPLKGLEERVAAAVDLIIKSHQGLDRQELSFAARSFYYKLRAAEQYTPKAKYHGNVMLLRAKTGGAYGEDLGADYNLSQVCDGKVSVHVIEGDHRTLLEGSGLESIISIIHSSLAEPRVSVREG

With `O=[N+]([O-])c1ccc(S(=O)(=O)Nc2ccc(-c3ccccc3)cc2)cc1` the IC50 (Fatty acid synthase [1]) was 6.47 µM (active) and the IC50 (Fatty acid synthase [2]) was 5.95 µM (active).

With `O=[N+]([O-])c1cc(S(=O)(=O)Nc2cccc(C(F)(F)F)c2)ccc1-n1nnc2ccccc21` the IC50 (Fatty acid synthase [1]) was 4.72 µM (active), the IC50 (Fatty acid synthase [2]) was 7.12 µM (active) and the EC50 [3] was 3.52 µM (active).

For `COc1cc(NC(=O)COc2ccc(-n3cnnn3)cc2)c(OC)cc1Cl`, the IC50 (Estrogen receptor) was 8.31 µM (active).

With `CCCCCC(O)CCc1nnc(S)n1-c1ccccc1` (stereo not given) the IC50 [4] was > 100 µM (inactive) and the IC50 [5] was 6.33 µM (active).

In the case of `O=[N+]([O-])c1ccccc1/C=N/n1c(S)nnc1-c1cccnc1`, the IC50 [4] is reported as > 100 µM (inactive) and the IC50 [5] is reported as 3.08 µM (active).

For `O=C(CSc1ccc([N+](=O)[O-])cn1)Nc1ccc2c(c1)OCO2`, the IC50 (Fatty acid synthase [1]) was 0.951 µM (active) and the IC50 (Fatty acid synthase [2]) was 0.981 µM (active).

For `O=C(Nc1nnc(S(=O)(=O)N2CCCCC2)s1)c1cccc(Br)c1`, the IC50 [6] was > 80 µM (inactive).

For `COc1cc(CNc2nc[nH]n2)cc(Br)c1OC`, the IC50 (Leucine aminopeptidase) was 8.2 µM (active).

In the case of `NC(Cc1ccc([N+](=O)[O-])cc1)=NOC(=O)c1ccc2ccccc2c1`, the IC50 (Estrogen receptor) is reported as > 50 µM (not active) and the CC50 [7] is reported as 33 µM (active).

In the case of `CC(=O)Nc1ccc2nc(-c3ccccn3)[nH]c2c1`, the IC50 (Aminopeptidase N) is reported as 94 µM (active).

With `CCC1CCCCN1C(=S)NC(=O)c1cccc([N+](=O)[O-])c1` (stereo not given) the IC50 [8] was > 66 µM (inactive) and the IC50 [9] was > 66 µM (inactive).

In the case of `Cc1ccccc1NC(=O)N1CCCC(c2nc(-c3ccc(C(C)C)cc3)no2)C1` (stereo not given), the EC50 [10] is reported as 5.18 µM (active), the EC50 [11] is reported as 0.157 µM (active) and the EC50 (H4) is reported as 23.1 µM (active). The EC50 [3] was 8.11 µM (active).

For `O=C(NN1C(=O)c2ccccc2NC1c1ccccn1)c1ccccc1` (stereo not given), the IC50 (Aminopeptidase N) was 81.1 µM (active).

For `COc1ccccc1OCC(=O)Sc1ccc(C)cc1`, the IC50 [8] was > 66 µM (inactive) and the IC50 [9] was > 66 µM (inactive).

In the case of `CCNS(=O)(=O)c1ccc(CCC(=O)NCc2ccccc2)cc1`, the IC50 (Aminopeptidase N) is reported as 60.1 µM (active).

In the case of `CCc1n(CC(O)COC2CCCCC2)c2ccccc2[n+]1C` (stereo not given), the IC50 [12] is reported as 1.75 µM (active) and the IC50 [13] is reported as 1.42 µM (active).

For `COc1ccc(-n2c(SCC(=O)Nc3ccc4c(c3)OCO4)nnc2C(C)N2CCCCC2)cc1` (stereo not given), the IC50 (Estrogen receptor) was > 50 µM (not active).
